Test: Human HepG2 cell viability assay in 384 well format
Format: toxicity, cell-based
Set-up: dose 125 nL, time 70.5 hour; concentration not given beside the values
Conditions: HepG2 cells, read-out: Inhibition

Structure (SMILES) | cytotoxicity at 70.5 h
O=C(CCN1CCCCO1)N1CC[C@H](O)[C@@H](O)C1 | 11.6%
CCc1cc(N[C@H](C(N)=O)C(C)C)n2nc(C)c(C)c2n1 | -6.29%
Cc1nn(C)cc1C(=O)N1CCCC(c2nccn2Cc2cscn2)C1 (centres undefined) | -7.69%
Cc1ocnc1C(=O)N1CCC2(CC1)c1nc[nH]c1CCN2CC(C)C | 27.1%
O=S1(=O)C[C@@H]2[C@H](C1)N(Cc1nc3ccccc3[nH]1)CCN2CC1CC1 | -5.06%
CCc1nc2c(N3CCC4(CC3)CNC(=O)C4)ncnc2o1 | -3.31%
CN(C)c1cccc(C(=O)N2C[C@H]3CC[C@@H]2CN(C(=O)C2CCC2)C3)c1 | 0.254%
COCCCC1(CO)CCCN(C(=O)c2cnc3c(c2)CCCC3)C1 (centres undefined) | -6.26%
CNc1ncccc1CN1CCN2CCN(C)CC2C1 (centres undefined) | -7.61%
COCCN(Cc1cccs1)c1nc(CCN)nc2ccccc12 | -9.93%
CCn1c(C2CCN(C(=O)c3cc(Cl)no3)CC2)nn(C)c1=O | 39%
O=C(Nc1ccc(F)cc1)N1CCC2(CCC(=O)N(C3CC3)C2)CC1 | -11.6%
FC(F)(F)C1CN(Cc2cccc(OCc3ccccn3)c2)CCO1 (centres undefined) | 8.84%
CC(C)[C@H]1CN(C(=O)CO)C[C@@H]1N(C)C | -13.8%
Cc1cc(C(=O)N2CC[C@H](N3CCN(C)CC3)[C@H](CCCO)C2)n(C)n1 | -6.07%
Cc1c(Cl)cccc1S(=O)(=O)N1C[C@@H]2CC[C@H](C1)N(C)C2=O | 1.2%
CCCc1nc(C(=O)NC(COC)c2ccnn2C)cs1 (centres undefined) | -10.8%
CC(=O)N1CCc2c(nc(N(C)C)nc2NCCCn2ccnc2C)C1 | -4.2%
Nc1nnc(CCCNC(=O)c2ccc(C3CCCNC3)cc2)s1 (centres undefined) | 8.02%
O=C1Nc2ccccc2C12CCCN(Cc1ccc3c(c1)OCCO3)C2 (centres undefined) | -11.8%
CCn1c(C)nnc1SCCNC(=O)c1sc(C(C)C)nc1C | -7.2%
CC(C)OC(=O)N1C[C@H]2CC[C@@H]1CN(C(=O)c1ccccc1)C2 | -2.95%

Structure (SMILES) | cytotoxicity at 70.5 h
COCC1(C(=O)N[C@H]2CN(c3ccnc(C)c3)C[C@@H]2C2CC2)CCC1 | -8.46%
COC(=O)CCC(=O)NCc1cccnc1N1CCc2ccccc2C1 | 3.31%
CN1CCC(CNC(=O)c2cccc(CN3CCCCCC3)c2)C1 (centres undefined) | -5.88%
CCNc1ncc(-c2cc(-c3ccn(C)c3)nc(N)c2C#N)cn1 | -11.6%
COCCn1ccnc1CN1CCc2[nH]cnc2C1c1cccc(O)c1 (centres undefined) | -14.3%
CCCc1nnc(N2CCN(c3cccc(C)c3C)CC2)o1 | -14.8%
Cc1cncc(C2CCCN(C(=O)c3cccn3C)C2)n1 (centres undefined) | -5.17%
NC[C@H]1CC[C@H](C(NC(=O)c2ccccn2)c2ccccn2)CC1 (some centres undefined) | -4.69%
Cc1ccn(CCC(=O)N2CCOC(c3nc(-c4cccs4)no3)C2)n1 (centres undefined) | -2.76%
O=C(c1cnco1)N1CCCC(Cc2nccs2)C1 (centres undefined) | -7.07%
C[C@]1(O)CCN(Cc2cncs2)C[C@@H]1Oc1cccc(F)c1 | -0.0777%
CCc1nccn1-c1cncc(C2CCCN2Cc2ccc(F)cc2)n1 (centres undefined) | 36.1%
CC1CCCCN1Cc1ccc(-c2ccccc2C(=O)O)cc1 (centres undefined) | 0.911%
COc1ncc(CN2CC[C@@](C)(O)[C@H](Oc3cccc(F)c3)C2)cn1 | 5.46%
Cc1nc(CN2CCCC(NCc3ccc4c(c3)CCO4)C2)no1 (centres undefined) | 14.2%
Cc1nc(C)n(C2CCCN(C(=O)CCOCC(C)C)C2)n1 (centres undefined) | 11%
Cc1nc(CN2CCCC(NCc3ccc4ccccc4c3)C2)no1 (centres undefined) | -6.48%
CCc1nc(C2CCCN2CC(=O)Nc2cc(C)no2)no1 (centres undefined) | -5.2%
Cc1n[nH]c(C)c1NC(=O)CN1CCCC1c1noc(C2CC2)n1 (centres undefined) | -18.5%
Cc1nc(C)n(C2CCCN(C(=O)CCCc3ccccn3)C2)n1 (centres undefined) | -7.71%
Cc1cc(CN2CCCC2c2noc(C(C)C)n2)on1 (centres undefined) | -15.4%
COc1ncc(C2(O)CCN(Cc3cccs3)CC2)c(OC)n1 | -8.54%
